Results published in US9364474B2, “Method for treatment of neurologic dysfunction” (MedDEV, Inc., priority 2004, dated 2016).

How the values were obtained:
MAO-A = conditions: Egashira et al (1996); Gnerre et al (2001); cited from earlier work
[1] = tested on: patient suffering from depression; conditions: Depression Example Four; taking nortriptyline
Protocol: The treatment composition is suitably applied in a single daily dose, e.g., 0.01 mg of the MAO-A agonist in 0.05 ml of transdermal cream applied once every morning. Caffeine may also be included in the composition to compensate for the anti-hypertensive effect of the preferred reserpine; the caffeine may suitably be included in an amount from about 50-100 mg/dose.
Treatment was in the form of 0.01 mg of reserpine per 0.05 ml of transdermal cream, applied transdermally once a day in the morning.
The treatment consisted of 0.01 mg of reserpine per 0.05 ml of cream, applied transdermally by rubbing the cream into the skin once a day in the morning.
The treatment consisted of 0.01 mg of the reserpine per 0.05 ml of cream, applied transdermally by rubbing the cream into the skin once a day in the morning.
The patient discontinued the use of nortriptyline and the same day started the treatment of the present invention, using 0.01 mg of the reserpine per 0.05 ml cream, applied transdermally by rubbing the cream into the skin once a day in the morning.
The patient then started the treatment of the present invention, using 0.01 mg of the MAO-A activity stimulator (reserpine) per 0.05 ml cream, applied transdermally by rubbing the cream into the skin once a day in the morning.

MAO-B = biological target: T1, MAO-B (Homo sapiens, UniProt P27338); conditions: Egashira et al (1996); Gnerre et al (2001); cited from earlier work
T1 sequence (P27338 1-520): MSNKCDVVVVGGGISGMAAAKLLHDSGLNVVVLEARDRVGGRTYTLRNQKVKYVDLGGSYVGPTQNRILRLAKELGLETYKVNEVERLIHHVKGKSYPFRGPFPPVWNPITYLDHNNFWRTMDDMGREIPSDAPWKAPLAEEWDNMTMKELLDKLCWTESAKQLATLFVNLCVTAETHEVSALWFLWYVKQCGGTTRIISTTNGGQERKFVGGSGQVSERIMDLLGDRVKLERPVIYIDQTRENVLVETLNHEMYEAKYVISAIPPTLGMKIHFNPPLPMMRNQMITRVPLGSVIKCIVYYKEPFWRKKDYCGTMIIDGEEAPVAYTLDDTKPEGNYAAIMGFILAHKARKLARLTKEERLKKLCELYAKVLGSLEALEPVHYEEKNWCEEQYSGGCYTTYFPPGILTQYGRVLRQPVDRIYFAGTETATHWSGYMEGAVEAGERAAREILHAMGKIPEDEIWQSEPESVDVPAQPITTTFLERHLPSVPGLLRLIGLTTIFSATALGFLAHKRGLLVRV

patient with Autism = assay: Case examples: patients with Autism (ASD), transdermal reserpine (with prior medication history); assay type: in vivo, human; conditions: for success of prior treatments: ASD Example Three: person, prior treatments tried
Protocol: The treatment composition is suitably applied in a single daily dose, e.g., 0.01 mg of the MAO-A agonist in 0.05 ml of spray solution applied once every morning.
Prior to administration of the present invention (transdermal reserpine), the patient's parents were provided with an informed consent documenting the potential risks, benefits and alternatives to this treatment. The patient was started on a dose of Reserpine at a 4× dilution resulting in a total dose of 0.01 mg. […] They were also given approximately 1400 mg of Calcium every morning.

[2] = tested on: patient diagnosed with chronic schizophrenia; assay: Case example: patient with chronic schizophrenia, transdermal reserpine spray (with prior medication history); assay type: in vivo, human; conditions: prior treatment
[3] = tested on: ethanol-preferring laboratory hamsters; conditions: cited from earlier work
aldehyde dehydrogenase = conditions: literature; cited from earlier work

SMILES | activity towards MAO-A (MAO-A) | activity towards MAO-B relative to MAO-A (MAO-B) | other results
CNCCC=C1c2ccccc2CCc2ccccc21 [nortriptyline] | inhibitory activity | clearly more potent selectivity for MAO-B | symptoms persisting despite prior medication [1]: Decreased energy, fatigue • Early morning awakening
O=C1CC[C@@]2(O)[C@H]3Cc4ccc(O)c5c4[C@@]2(CCN3CC2CC2)[C@H]1O5 [naltrexone] |  |  | success of prior treatments (patient with Autism): none to minimal success
CN(C)CCCN1c2ccccc2CCc2ccccc21 [imipramine] | inhibitory activity | clearly more potent selectivity for MAO-B | 
CN1Cc2c(N)cccc2C(c2ccccc2)C1 (stereo not drawn) [nomifensine] | inhibitory activity | clearly more potent selectivity for MAO-B | 
CN(C)CCC=C1c2ccccc2COc2ccccc21 [doxepine] | inhibitory activity | clearly more potent selectivity for MAO-B | 
CN(C)CCC=C1c2ccccc2CCc2ccccc21 [amitriptyline] | inhibitory activity | clearly more potent selectivity for MAO-B | 
OCCOCCN1CCN(C2=Nc3ccccc3Sc3ccccc32)CC1 [quetiapine] |  |  | functional benefit of prior medication (patient with Autism; ASD Example One, prior trials at therapeutic doses, only quetiapine of six medications): functional improvements
COc1ccc2[nH]cc(CCNC(C)=O)c2c1 [melatonin] |  |  | success of prior treatments (patient with Autism): none to minimal success
OCCOCCN1CCN(C2=Nc3ccccc3Sc3ccccc32)CC1 [Seroquel] |  |  | success of prior treatments (patient with Autism): none to minimal success
COCCCC/C(=N\OCCN)c1ccc(C(F)(F)F)cc1 [fluvoxamine] | inhibitory activity | clearly more potent selectivity for MAO-B | 
CNCCC(Oc1ccc(C(F)(F)F)cc1)c1ccccc1 (stereo not drawn) [fluoxetine] | inhibitory activity | clearly more potent selectivity for MAO-B | 
O=C1CCc2ccc(OCCCCN3CCN(c4cccc(Cl)c4Cl)CC3)cc2N1 [Abilify] |  |  | tolerability and efficacy of prior medication ([2]; Schizophrenia Example One): tolerated better but still had many symptoms unresolved
CNCCCC12CCC(c3ccccc31)c1ccccc12 [maprotiline] | inhibitory activity | clearly more potent selectivity for MAO-B | 
O=c1c(-c2ccc(O)cc2)coc2cc(O[C@@H]3O[C@H](CO)[C@@H](O)[C@H](O)[C@H]3O)ccc12 [daidzin] |  |  | effect on ethanol intake [3]: suppress ethanol intake; effect on aldehyde dehydrogenase (aldehyde dehydrogenase): inhibits aldehyde dehydrogenase
CCOc1ccccc1OCC1CNCCO1 (stereo not drawn) [viloxazine] | inhibitory activity | clearly more potent selectivity for MAO-B | 
COC(=O)C(c1ccccc1)C1CCCCN1 (stereo not drawn) [Ritalin] |  |  | success of prior treatments (patient with Autism): none to minimal success
CCCC(CCC)C(=O)O [depakote] |  |  | success of prior treatments (patient with Autism): none to minimal success; side effects of prior medication ([2]; Schizophrenia Example One: person, discontinued): extremely lethargic and obese
CN(C)C/C=C(/c1ccc(Br)cc1)c1cccnc1 [zimeldine] | inhibitory activity | clearly more potent selectivity for MAO-B | 
CN(C)CCCN1c2ccccc2CCc2ccc(Cl)cc21 [clomipramine] | inhibitory activity | clearly more potent selectivity for MAO-B | 
